# Reference: patent publication US9434688B2, “Indole derivatives as selective androgen receptor modulators (SARMS)” (Janssen Pharmaceutica, NV, priority 2004, dated 2016)
# “And” between values parts separate entries of the source, which are not always exact repeats. Identical values can stand only once.
# Target: T1, androgen receptor (Rattus norvegicus, UniProt P15207)
# T1 sequence (P15207 1-902): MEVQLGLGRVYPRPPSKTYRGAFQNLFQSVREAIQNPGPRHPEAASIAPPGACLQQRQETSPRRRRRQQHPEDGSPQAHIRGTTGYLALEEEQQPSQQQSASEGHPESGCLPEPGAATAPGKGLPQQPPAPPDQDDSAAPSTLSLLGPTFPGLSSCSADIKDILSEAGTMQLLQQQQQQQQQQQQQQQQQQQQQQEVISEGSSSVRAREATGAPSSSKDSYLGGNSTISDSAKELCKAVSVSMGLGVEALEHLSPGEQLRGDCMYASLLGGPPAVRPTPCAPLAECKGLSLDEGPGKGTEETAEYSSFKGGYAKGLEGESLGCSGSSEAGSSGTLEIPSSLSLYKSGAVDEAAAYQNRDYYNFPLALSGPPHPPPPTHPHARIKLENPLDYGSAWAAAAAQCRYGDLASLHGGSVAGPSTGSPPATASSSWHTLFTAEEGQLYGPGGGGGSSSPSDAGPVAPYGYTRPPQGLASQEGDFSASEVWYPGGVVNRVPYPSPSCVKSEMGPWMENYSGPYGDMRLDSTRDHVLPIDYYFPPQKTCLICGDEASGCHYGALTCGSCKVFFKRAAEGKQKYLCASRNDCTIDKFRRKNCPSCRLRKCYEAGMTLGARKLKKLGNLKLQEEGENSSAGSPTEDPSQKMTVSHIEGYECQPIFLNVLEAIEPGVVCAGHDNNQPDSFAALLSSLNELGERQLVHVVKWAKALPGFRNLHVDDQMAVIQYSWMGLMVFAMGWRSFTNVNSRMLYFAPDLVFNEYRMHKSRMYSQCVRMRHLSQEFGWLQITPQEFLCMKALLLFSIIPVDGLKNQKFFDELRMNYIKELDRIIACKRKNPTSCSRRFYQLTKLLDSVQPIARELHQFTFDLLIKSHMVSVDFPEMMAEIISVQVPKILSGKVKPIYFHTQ
# Assay: Androgen Receptor Binding Using Rat Ventral Prostate Cytosol
# Set-up: from tissue; host or cells: ventral prostate cytosol of castrated male Sprague Dawley or Wistar rats
# Conditions: Rat Cytosol; Concentration 1000 nM
# Description: Rat Prostate Cytosol Preparation:
# Male Sprague Dawley or Wistar rats (Charles River, 200-300 g) were used for each preparation. The day before preparing the cytosol, the rats were castrated using standard surgical procedures.
# The rats were euthanized by carbon dioxide asphyxiation. The rat prostates were quickly removed and placed on ice in pre-chilled, pre-weighed 50 mL plastic tubes. No more than five prostates were placed into one tube. The tubes were then weighed and the prostate tissue wet weights calculated.
# To the chilled prostate tissue was then added […] of chilled homogenization buffer. The homogenization buffer was freshly prepared by mixing 10 mM Tris.HCl, pH 7.4, 1 mM sodium molybdate, 1.5 mM EDTA, 1 mM dithiothreitol, 10% (v/v) glycerol and 1% protease inhibitor cocktail (Sigma P 8340).
# The prostate tissue was homogenized in a cold room using a pre-chilled Polytron PT3000 homogenizer (Brinkmann). Homogenization was performed at a speed setting of 20, three times for 10 sec bursts. The tubes containing the prostate tissue was kept on ice while homogenizing. The homogenate was allowed to rest on ice for 20 sec between bursts.
# The homogenate was then placed into pre-chilled 3 mL polycarbonate ultracentrifuge tubes and centrifuged in the TLA-100 rotor of a TL-100 ultracentrifuge for 12 min at 100,000 rpm at 4° C. The resulting supernatant was stored in 1 mL aliquots at −80° C. until needed.
# Binding to the androgen receptor was determined according to the protocol described in Example 86 using the above prepared rat cytosol.
# % Inhibition was determined by testing dilutions of the test compound (usually duplicates of 10 μM) in the binding assay. Counts per well were measured and percents of inhibition determined. […] Counts per well were measured and IC50s determined by linear regression.
row,SMILES,% Inhibition [%]
1,CC(O)(c1cc2cc(C#N)c(C(F)(F)F)cc2[nH]1)S(=O)(=O)c1ccc(Cl)cc1 (racemic) [compound 262],−8.4
2,CC(O)(Sc1ccc(Cl)cc1)c1cc2cc(C#N)c(C(F)(F)F)cc2[nH]1 (racemic) [compound 261],14.05
3,CC(O)(Sc1ccc(Cl)c(Cl)c1)c1cc2cc([N+](=O)[O-])c(C(F)(F)F)cc2[nH]1 (racemic) [compound 254],41
4,CS(=O)(=O)n1c(C2(O)CCN(C(=O)c3ccc(Cl)cc3)CC2)cc2cc(Cl)c(C(F)(F)F)cc21 [compound 24],2
5,CC(O)(c1cc2cc([N+](=O)[O-])c(C(F)(F)F)cc2[nH]1)S(=O)(=O)c1ccc(Cl)c(Cl)c1 (racemic) [compound 255],26
6,CC(O)(Sc1ccccc1)c1cc2cc([N+](=O)[O-])c(C(F)(F)F)cc2[nH]1 (racemic) [compound 258],35.4

# Same assay, conditions: Rat Cytosol; Concentration 3000 nM
row,SMILES,% Inhibition [%]
1,CC(O)(Sc1ccc(N)cc1)c1cc2cc([N+](=O)[O-])c(C(F)(F)F)cc2[nH]1 (racemic) [compound 266],12.4
2,CN(C)c1ccc(S(=O)(=O)CC(C)(O)c2cc3cc(Cl)c(C(F)(F)F)cc3[nH]2)cc1 (racemic) [compound 126],−30
3,CC(O)(CS(=O)(=O)Cc1ccccc1)c1cc2cc([N+](=O)[O-])c(C(F)(F)F)cc2[nH]1 (racemic) [compound 162],0.69
4,CC(O)(Sc1ccc(N)cc1)c1cc2cc(Cl)c(C(F)(F)F)cc2[nH]1 (racemic) [compound 265],93.5
5,CC(C)SC(C)(CO)c1cc2cc([N+](=O)[O-])c(C(F)(F)F)cc2[nH]1 (racemic) [compound 268],−3.3

# Target: T1, androgen receptor
# Assay: L929 Androgen Receptor Functional Assay, Adenovirus Transduction
# Assay type: cell-based
# Set-up: expressed in transfected cells; host or cells: L929 cells transduced with adenovirus AdEasy+rAR
# Conditions: L929 agonist testing; @ 8000 nM
# Description: L929 cells were plated in 96-well plates at 20,000 cells per well, in DMEM/F12 (GIBCO) containing 10% (v/v) charcoal-treated fetal bovine serum (Hyclone) and lacking phenol red. The plates were then incubated overnight at 37° C. in 5% (v/v) humidified CO2.
# Test compound dilutions were prepared in 100% (v/v) DMSO, if necessary. Each dilution was made to 1250× the final desired assay concentration.
# First, 2 mL of DMEM/F12 lacking phenol red was pipetted into the wells of a 2-mL 96-well assay block. Next, 4 μL of the 1250× test compound dilutions were pipetted into each well of the assay block. The mixtures within the well were then carefully mixed by pipette.
# In a 15 mL or 50 mL sterile centrifuge tube, a 2.5 nM (2.5×) dilution of R1881 (methyl-trienolone) in DMEM/F12 lacking phenol red was prepared.
# In a second 15 mL or 50 mL centrifuge tube a solution containing an equal volume of DMEM to the first and an equal volume of 100% (v/v) DMSO to the volume of R1881 used in the first tube was prepared.
# In a 15 mL or 50 mL sterile centrifuge tube, a dilution in DMEM/F12 of the adenovirus AdEasy+rAR at an moi of 1:500 per well was prepared.
# The medium was removed from the 96-well plates by inversion and dried, inverted, very briefly. As soon as possible after medium removal, 40 μL of the diluted unlabeled test compound was added to each well, in duplicate. To each well designated for antagonist testing was added 40 μL of the 2.5 nM R1881 dilution to the wells for antagonist testing. To each well designated for agonist testing was added 40 μL of the DMSO dilution. Then 20 μL of the diluted adenovirus were added to all wells. The plates were incubated for 48 hours at 37° C. in 5% (v/v) humidified CO2.
# To each well was added 100 μL of Steady-Glo luciferase assay substrate (Promega) and the plates were placed on a rotary shaker for 1 min. The plates were then incubated at room temperature in the dark for one hour. The contents of each well were then transferred to a white microtiter plate (Packard) and read on a Luminoskan Ascent (Thermo Lab Systems).
# L929 AR percent activity was determined by testing dilutions of the test compound using a concentration of 3000 nM unless otherwise noted. L929 percent inhibition was determined by testing dilutions of the test compound using a concentration of 3000 nM. […] Luciferase activity per well were measured and EC50s and IC50s determined by linear regression.
row,SMILES,% Activity
1,"CCSCC(C)(O)c1cc2cc(C#N)c(C(F)(F)F)cc2[nH]1 (single isomer, unassigned) [Compound #217, 2-(2-Ethylsulfanyl-1-hydroxy-1-methyl-ethyl)-6-trifluoromethyl-1H-indole-5-carbonitrile]",0 @ 8000 nM %

# Same assay, conditions: L929 agonist testing; concentration of 3000 nM
row,SMILES,% Activity [%]
1,CCS(=O)(=O)CC(C)(O)c1cc2cc(C#N)c(C(F)(F)F)cc2n1C (racemic) [compound 240],0
2,CC(O)(CSc1ccc(C(=O)O)cc1)c1cc2cc(Cl)c(C(F)(F)F)cc2[nH]1 (centres unmarked) [compound 133],−4
3,CCCSCC(C)(O)c1cc2cc(Cl)c(C(F)(F)F)cc2[nH]1 (racemic) [compound 196],13
4,CC(O)(Sc1ccc(N)cc1)c1cc2cc([N+](=O)[O-])c(C(F)(F)F)cc2[nH]1 (racemic) [compound 266],−4
5,CC(O)(CSCc1ccco1)c1cc2cc([N+](=O)[O-])c(C(F)(F)F)cc2[nH]1 (racemic) [compound 198],7
6,CN(C)c1ccc(S(=O)(=O)CC(C)(O)c2cc3cc(Cl)c(C(F)(F)F)cc3[nH]2)cc1 (racemic) [compound 126],−5
7,CC(O)(CSCC(F)(F)F)c1cc2cc(C#N)c(C(F)(F)F)cc2[nH]1 (racemic) [compound 211],−1
8,COc1ccc(S(=O)(=O)CC(C)(O)c2cc3cc(Cl)c(C(F)(F)F)cc3n2S(C)(=O)=O)cc1 (centres unmarked) [compound 128],−4
9,CC(O)(CS(=O)(=O)Cc1ccccc1)c1cc2cc([N+](=O)[O-])c(C(F)(F)F)cc2[nH]1 (racemic) [compound 162],2
10,CC(C)CSCC(C)(O)c1cc2cc([N+](=O)[O-])c(C(F)(F)F)cc2[nH]1 (centres unmarked) [compound 170],2
11,CC(O)(CS(=O)(=O)CC(F)(F)F)c1cc2cc([N+](=O)[O-])c(C(F)(F)F)cc2[nH]1 (racemic) [compound 208],1
12,CC(O)(CS(C)(=O)=O)c1cc2cc(Cl)c(C(F)(F)F)cc2n1S(C)(=O)=O (centres unmarked) [compound 137],0
13,CSCCC(C)(O)c1cc2cc([N+](=O)[O-])c(C(F)(F)F)cc2[nH]1 (centres unmarked) [compound 47],2
14,CSCCC(C)(O)c1cc2cc(Cl)c(C(F)(F)F)cc2[nH]1 (racemic) [compound 51],2
15,CC[S+]([O-])CC(O)c1cc2cc([N+](=O)[O-])c(C(F)(F)F)cc2[nH]1 (mixture of isomers) [compound 180],2
16,CC(O)(CSc1ccc(C(=O)O)cc1)c1cc2cc(Cl)c(C(F)(F)F)cc2n1S(C)(=O)=O (centres unmarked) [compound 132],−5
17,CC(O)(Sc1ccc(N)cc1)c1cc2cc(Cl)c(C(F)(F)F)cc2[nH]1 (racemic) [compound 265],−1
18,CC(C)SC(C)(CO)c1cc2cc([N+](=O)[O-])c(C(F)(F)F)cc2[nH]1 (racemic) [compound 268],9

# Same assay, conditions: L929 agonist testing; concentration of 3000 nM; 3 µM
row,SMILES,% Activity
1,CSC(C)(O)c1cc2cc([N+](=O)[O-])c(C(F)(F)F)cc2[nH]1 (racemic) [compound 267],−5% and 0%

# Same assay, conditions: L929 antagonist testing with R1881
row,SMILES,IC50 [µM]
1,CC[S+]([O-])CC(C)(O)c1[nH]c2cc(C(F)(F)F)c(C#N)cc2c1C (centres unmarked) [compound 252],3.1
